Results on three compounds are retold here after ChEMBL document CHEMBL1201862, “PubChem BioAssay data set” (2004).

As a reminder, the AC50 is the concentration at which the activity in the assay is half-maximal. As usually defined, the EC50 is the midpoint of the concentration-response curve.

The source made the active and inactive calls.

The target of test [1] is DNA dC->dU-editing enzyme APOBEC-3A (Homo sapiens, UniProt P31941). Put plainly: APOBEC3A DNA deaminase inhibitors, dose response, biochemical (AID 504722). The class given is functional.
For test [2], the target named is T1, Voltage-gated N-type calcium channel alpha-1B subunit/Amyloid beta A4 precursor protein-binding family A member 1 (Homo sapiens, UniProt Q00975+Q02410). The class given is protein assay.
Test [3] addresses T2, Mannose-6-phosphate isomerase (Homo sapiens, UniProt P34949).
T2 sequence (P34949 whole entry): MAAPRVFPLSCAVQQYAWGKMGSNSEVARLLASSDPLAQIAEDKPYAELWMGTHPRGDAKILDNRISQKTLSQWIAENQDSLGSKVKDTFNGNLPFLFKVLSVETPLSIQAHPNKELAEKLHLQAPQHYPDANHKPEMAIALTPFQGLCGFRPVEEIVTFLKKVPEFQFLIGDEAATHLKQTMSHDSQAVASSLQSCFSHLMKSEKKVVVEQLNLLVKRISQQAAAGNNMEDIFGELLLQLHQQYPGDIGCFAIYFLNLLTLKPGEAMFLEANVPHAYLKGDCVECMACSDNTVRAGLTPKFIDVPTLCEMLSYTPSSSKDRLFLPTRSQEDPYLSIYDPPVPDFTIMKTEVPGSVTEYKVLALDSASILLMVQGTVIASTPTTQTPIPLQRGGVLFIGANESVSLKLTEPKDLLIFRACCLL
The experiment in a line: inhibitors of human PMI, primary screen, biochemical, fluorescence intensity, coupled assay (AID 1209).

The target of test [4] is Cytochrome P450 3A4 (Homo sapiens, UniProt P08684).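 Further: CYP3A4 tested as one member of a cytochrome P450 panel screen.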
A short description of test [5]: cells. The class given is functional.
For test [6], the target named is T3, Hexokinase HKDC1 (Homo sapiens, UniProt Q2TB90).
T3 sequence (Q2TB90 whole entry): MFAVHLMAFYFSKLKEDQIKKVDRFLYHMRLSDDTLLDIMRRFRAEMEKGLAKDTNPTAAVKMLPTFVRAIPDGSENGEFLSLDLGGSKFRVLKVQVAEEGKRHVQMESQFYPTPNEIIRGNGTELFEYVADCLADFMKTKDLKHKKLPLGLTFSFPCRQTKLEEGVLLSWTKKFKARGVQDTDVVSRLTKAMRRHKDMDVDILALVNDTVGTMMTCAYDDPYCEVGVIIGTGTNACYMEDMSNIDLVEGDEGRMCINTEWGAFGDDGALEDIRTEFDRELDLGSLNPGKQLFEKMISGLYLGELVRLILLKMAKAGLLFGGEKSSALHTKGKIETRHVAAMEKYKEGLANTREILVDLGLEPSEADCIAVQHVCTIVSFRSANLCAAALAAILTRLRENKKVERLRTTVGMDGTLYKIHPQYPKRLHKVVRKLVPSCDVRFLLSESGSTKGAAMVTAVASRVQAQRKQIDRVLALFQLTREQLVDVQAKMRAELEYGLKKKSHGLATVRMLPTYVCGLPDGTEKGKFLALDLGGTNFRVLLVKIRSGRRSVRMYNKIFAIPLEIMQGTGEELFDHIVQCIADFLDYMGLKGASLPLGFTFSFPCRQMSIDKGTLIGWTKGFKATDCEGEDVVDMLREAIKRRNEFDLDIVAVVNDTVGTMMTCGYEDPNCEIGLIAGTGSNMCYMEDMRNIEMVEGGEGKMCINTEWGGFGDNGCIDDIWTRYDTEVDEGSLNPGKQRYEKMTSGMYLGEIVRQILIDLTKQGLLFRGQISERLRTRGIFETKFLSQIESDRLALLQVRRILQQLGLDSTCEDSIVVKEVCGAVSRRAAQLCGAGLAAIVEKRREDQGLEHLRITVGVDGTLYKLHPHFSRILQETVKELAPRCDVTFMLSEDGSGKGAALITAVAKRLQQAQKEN
The experiment in a line: HKDC1 hexokinase activators, dose response, biochemical, W721R variant (AID 504730). The class given is functional.

Test [7] deals with DNA dC->dU-editing enzyme APOBEC-3G (Homo sapiens, UniProt Q9HC16). Put plainly: Dose Response confirmation of small molecule APOBEC3G DNA Deaminase Inhibitors via a fluorescence-based single-stranded DNA deaminase assay. [Related pubchem assays (depositor defined):AID493012, AID493028]. The class given is functional.
Test [8] has as its target Glucose-6-phosphate 1-dehydrogenase (Homo sapiens, UniProt P11413). Put plainly: human G6PD enzyme inhibitors, dose response, selectivity assay for P. falciparum G6PD inhibitor project, biochemical, fluorescence (AID 504792). The format is functional.
Test [9] deals with Eukaryotic translation initiation factor 4E (Mus musculus, UniProt P63073). The experiment in a line: eIF4E–eIF4G protein interaction inhibitors, dose response, biochemical, TR-FRET (AID 855).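 Further: potency for disrupting eIF4E binding to eIF4GI seen as loss of FRET.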 The format is functional. In general terms: TR-FRET usually uses a lanthanide donor and a delayed reading to cut background.
Test [10] concerns the target T4, Low molecular weight phosphotyrosine protein phosphatase (Homo sapiens, UniProt P24666).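 Further: Dose-response confirmation assay measuring inhibition of LMPTP enzyme activity by fluorescence intensity read-out.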
T4 sequence (P24666 whole entry): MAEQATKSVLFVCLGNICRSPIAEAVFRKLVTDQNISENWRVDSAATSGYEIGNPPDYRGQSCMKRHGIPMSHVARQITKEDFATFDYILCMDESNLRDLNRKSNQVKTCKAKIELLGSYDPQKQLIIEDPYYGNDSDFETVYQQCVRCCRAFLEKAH
The class given is functional. Conditions: read-out: IC50_Mean.

The target in test [11] is T5, Hexokinase-1 (Homo sapiens, UniProt P19367).
T5 sequence (P19367 whole entry): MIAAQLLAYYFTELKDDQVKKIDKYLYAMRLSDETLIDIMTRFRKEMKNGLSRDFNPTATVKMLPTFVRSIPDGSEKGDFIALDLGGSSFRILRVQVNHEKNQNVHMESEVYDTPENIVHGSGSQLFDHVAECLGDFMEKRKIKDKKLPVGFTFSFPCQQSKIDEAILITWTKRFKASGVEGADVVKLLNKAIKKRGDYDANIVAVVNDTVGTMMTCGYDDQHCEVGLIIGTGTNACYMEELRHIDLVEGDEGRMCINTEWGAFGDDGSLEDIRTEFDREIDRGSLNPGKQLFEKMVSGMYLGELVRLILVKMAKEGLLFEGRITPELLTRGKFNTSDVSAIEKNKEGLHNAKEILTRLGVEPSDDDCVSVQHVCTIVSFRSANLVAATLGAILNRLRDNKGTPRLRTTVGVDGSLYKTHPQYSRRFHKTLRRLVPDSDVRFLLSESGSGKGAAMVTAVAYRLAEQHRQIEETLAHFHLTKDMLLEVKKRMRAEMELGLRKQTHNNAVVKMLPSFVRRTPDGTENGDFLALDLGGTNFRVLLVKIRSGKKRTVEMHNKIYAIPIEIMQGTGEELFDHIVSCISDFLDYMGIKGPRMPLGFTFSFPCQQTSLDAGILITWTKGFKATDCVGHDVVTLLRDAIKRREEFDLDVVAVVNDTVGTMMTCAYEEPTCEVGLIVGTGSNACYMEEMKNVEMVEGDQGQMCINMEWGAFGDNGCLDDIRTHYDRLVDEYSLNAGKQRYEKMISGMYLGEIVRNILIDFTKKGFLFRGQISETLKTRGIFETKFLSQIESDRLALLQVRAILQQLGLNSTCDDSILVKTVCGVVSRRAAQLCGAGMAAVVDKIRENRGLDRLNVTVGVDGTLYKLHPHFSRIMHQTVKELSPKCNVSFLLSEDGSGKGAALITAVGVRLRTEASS
Put plainly: hexokinase 1 activators, dose response, selectivity assay for HKDC1 activator project, biochemical (AID 504762). The format is functional.

For test [12], the target named is T1, Voltage-gated N-type calcium channel alpha-1B subunit/Amyloid beta A4 precursor protein-binding family A member 1. The format is protein assay. This is another data set of the same source.
The target in test [13] is T6, Ubiquitin-conjugating enzyme E2 N (Homo sapiens, UniProt P61088).
T6 sequence (P61088 whole entry): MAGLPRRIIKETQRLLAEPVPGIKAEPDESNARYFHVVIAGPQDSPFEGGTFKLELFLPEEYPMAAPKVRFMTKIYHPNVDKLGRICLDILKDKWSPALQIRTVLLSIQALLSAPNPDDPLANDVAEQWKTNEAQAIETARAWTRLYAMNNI
The class given is functional.

Test [14] has as its target T7, Bcl-2-related protein A1 (Mus musculus, UniProt Q07440).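 Further: confirmatory dose–response counterscreen on Bfl-1, used to check hits from a UBC13 polyubiquitin inhibitor campaign.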
T7 sequence (Q07440 whole entry): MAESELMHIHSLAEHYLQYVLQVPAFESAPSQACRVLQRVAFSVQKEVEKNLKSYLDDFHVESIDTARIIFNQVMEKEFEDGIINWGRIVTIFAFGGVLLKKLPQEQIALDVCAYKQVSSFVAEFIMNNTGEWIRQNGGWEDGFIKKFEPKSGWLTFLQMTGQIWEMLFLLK
The format is functional.

In test [15] the target is T6, Ubiquitin-conjugating enzyme E2 N. The class given is functional. This is another data set of the same source.
In test [16] the target is T8, Estrogen receptor (Homo sapiens, UniProt P03372).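 Further: potency for inhibiting coactivator peptide recruitment to the receptor.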
T8 sequence (P03372 whole entry): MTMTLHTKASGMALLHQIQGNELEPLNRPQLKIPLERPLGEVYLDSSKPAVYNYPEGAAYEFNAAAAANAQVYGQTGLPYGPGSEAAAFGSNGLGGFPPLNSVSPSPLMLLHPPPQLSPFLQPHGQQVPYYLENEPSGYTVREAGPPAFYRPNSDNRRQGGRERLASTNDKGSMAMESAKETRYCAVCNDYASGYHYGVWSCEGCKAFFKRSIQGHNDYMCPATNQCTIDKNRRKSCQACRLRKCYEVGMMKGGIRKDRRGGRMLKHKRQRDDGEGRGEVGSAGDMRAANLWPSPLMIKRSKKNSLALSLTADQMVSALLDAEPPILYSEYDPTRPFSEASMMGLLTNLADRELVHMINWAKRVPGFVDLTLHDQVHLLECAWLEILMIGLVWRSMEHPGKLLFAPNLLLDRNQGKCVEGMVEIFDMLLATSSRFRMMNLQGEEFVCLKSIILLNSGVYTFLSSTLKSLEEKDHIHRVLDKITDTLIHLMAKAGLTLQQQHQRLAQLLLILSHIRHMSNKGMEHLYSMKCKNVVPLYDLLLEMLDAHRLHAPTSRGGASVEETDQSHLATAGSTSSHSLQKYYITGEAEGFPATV

Test [17] addresses Exodeoxyribonuclease V (Escherichia coli (strain K12), UniProt P04993+P07648+P08394). The experiment in a line: E. coli RecBCD inhibitors, dose response, counter-screen for AddAB inhibitor project, absorbance, V66 E. coli, mutant T4 phage (AID 492957). The class given is functional, cell-based, Escherichia coli str. K-12 substr. MG1655. In general terms: Counterscreens check selectivity or assay interference.

A short description of test [18]: Counterscreen for AddAB inhibitors: absorbance-based bacterial cell-based high throughput dose response assay for inhibitors of bacterial viability. [Related pubchem assays (depositor defined):AID435030, AID449728, AID449731, AID488942, AID488955, AID488956]. The class given is functional.

T1 sequence (Q00975 whole entry): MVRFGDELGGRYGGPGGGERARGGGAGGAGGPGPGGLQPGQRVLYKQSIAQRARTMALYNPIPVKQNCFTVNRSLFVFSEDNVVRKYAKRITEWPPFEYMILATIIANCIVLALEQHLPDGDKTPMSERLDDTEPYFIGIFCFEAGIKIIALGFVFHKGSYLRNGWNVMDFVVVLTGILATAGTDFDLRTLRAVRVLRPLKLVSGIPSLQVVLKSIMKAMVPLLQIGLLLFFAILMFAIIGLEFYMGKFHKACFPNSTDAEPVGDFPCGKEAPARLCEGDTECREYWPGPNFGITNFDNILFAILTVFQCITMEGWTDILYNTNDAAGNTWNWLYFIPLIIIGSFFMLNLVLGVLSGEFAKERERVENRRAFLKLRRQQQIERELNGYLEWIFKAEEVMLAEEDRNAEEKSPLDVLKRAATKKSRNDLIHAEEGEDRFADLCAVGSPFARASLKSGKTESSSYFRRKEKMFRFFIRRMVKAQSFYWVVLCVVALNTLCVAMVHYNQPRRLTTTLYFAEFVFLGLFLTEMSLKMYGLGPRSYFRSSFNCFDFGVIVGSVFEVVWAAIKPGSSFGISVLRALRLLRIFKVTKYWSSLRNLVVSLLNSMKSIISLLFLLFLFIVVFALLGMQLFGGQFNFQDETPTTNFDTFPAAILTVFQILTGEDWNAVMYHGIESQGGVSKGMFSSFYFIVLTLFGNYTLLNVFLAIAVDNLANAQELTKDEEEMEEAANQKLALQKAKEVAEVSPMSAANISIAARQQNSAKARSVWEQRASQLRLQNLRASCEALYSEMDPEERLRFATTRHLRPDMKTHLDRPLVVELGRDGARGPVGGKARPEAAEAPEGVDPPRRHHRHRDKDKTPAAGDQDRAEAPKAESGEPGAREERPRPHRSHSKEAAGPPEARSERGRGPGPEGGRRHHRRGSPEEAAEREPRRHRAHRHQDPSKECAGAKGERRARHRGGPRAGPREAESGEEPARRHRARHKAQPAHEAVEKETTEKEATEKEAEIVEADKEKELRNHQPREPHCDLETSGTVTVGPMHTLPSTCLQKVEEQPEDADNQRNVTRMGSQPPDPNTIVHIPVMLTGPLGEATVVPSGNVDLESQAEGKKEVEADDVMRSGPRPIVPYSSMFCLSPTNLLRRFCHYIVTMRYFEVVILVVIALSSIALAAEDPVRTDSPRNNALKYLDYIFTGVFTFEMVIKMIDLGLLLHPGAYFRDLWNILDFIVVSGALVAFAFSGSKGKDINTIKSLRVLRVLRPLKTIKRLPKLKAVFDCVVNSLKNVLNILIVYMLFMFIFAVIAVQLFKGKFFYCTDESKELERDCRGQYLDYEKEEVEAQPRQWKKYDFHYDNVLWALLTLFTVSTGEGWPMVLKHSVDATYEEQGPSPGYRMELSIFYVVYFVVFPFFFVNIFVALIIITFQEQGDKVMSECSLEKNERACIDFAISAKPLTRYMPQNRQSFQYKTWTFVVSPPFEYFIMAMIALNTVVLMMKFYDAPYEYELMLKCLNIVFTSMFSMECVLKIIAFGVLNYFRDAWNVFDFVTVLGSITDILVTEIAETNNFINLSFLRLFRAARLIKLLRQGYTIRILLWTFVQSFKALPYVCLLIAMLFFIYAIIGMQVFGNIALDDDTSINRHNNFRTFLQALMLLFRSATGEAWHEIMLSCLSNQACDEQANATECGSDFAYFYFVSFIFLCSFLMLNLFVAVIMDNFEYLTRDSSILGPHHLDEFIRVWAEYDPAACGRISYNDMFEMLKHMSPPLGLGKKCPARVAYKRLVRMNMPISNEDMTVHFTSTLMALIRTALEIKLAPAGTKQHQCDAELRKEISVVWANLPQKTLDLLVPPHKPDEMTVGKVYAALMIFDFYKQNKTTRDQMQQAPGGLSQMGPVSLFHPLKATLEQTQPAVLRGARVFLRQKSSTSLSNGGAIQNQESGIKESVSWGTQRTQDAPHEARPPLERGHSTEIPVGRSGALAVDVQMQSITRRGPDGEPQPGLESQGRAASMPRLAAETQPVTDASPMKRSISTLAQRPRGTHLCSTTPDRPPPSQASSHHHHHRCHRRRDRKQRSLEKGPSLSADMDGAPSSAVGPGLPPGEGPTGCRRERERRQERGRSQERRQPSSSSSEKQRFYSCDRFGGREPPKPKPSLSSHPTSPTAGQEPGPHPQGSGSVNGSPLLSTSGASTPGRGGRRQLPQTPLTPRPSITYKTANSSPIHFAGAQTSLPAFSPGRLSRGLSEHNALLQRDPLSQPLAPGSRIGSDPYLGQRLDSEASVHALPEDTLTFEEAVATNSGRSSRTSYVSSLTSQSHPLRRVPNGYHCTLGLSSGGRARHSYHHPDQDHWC
T1 sequence (Q02410 whole entry): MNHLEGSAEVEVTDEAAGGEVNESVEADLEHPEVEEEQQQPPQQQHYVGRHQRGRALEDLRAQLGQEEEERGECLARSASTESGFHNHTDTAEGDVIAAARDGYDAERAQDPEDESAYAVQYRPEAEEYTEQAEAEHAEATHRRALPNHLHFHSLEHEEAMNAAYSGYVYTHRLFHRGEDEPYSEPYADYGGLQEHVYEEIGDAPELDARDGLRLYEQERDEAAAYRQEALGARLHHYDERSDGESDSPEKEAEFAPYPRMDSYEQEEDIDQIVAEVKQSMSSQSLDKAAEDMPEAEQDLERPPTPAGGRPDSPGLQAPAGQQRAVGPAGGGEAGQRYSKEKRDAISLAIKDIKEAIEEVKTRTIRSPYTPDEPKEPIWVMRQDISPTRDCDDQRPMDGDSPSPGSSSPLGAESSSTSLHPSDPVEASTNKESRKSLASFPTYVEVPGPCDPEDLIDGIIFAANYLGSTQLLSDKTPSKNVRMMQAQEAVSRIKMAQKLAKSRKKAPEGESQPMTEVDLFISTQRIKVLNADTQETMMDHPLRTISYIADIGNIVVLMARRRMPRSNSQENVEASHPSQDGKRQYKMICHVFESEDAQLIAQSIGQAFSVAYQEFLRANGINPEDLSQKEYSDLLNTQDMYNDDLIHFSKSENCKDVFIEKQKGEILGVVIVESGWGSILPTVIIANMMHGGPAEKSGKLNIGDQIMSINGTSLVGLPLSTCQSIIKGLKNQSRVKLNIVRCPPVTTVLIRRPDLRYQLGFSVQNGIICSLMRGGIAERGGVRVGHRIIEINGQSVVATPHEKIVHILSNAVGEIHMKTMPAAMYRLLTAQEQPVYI
Eukaryotic translation initiation factor 4E, sequence (P63073 whole entry): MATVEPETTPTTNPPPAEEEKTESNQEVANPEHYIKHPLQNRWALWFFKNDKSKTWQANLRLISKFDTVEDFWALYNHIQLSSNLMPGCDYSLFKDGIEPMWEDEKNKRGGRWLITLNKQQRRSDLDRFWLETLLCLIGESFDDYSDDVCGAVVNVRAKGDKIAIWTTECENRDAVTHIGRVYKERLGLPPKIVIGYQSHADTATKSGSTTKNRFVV
Glucose-6-phosphate 1-dehydrogenase, sequence (P11413 whole entry): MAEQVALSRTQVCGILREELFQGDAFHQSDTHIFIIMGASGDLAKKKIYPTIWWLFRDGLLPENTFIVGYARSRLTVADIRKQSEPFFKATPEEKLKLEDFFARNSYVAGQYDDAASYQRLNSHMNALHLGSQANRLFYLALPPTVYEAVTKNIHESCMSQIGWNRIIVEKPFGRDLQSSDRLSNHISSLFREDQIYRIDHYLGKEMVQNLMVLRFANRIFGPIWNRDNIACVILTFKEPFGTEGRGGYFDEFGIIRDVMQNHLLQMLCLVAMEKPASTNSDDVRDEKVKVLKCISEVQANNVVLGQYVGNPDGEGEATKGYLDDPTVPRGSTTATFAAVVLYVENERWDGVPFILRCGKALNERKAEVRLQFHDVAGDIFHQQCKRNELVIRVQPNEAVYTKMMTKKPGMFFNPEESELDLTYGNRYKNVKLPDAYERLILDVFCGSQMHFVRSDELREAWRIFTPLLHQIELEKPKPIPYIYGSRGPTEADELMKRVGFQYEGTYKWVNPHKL
DNA dC->dU-editing enzyme APOBEC-3A, sequence (P31941 whole entry): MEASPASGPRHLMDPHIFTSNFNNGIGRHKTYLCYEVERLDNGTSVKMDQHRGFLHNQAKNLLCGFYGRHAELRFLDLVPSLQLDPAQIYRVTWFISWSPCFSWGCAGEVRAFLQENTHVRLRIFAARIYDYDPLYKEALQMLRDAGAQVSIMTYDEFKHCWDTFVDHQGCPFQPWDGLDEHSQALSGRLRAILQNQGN
Cytochrome P450 3A4, sequence (P08684 whole entry): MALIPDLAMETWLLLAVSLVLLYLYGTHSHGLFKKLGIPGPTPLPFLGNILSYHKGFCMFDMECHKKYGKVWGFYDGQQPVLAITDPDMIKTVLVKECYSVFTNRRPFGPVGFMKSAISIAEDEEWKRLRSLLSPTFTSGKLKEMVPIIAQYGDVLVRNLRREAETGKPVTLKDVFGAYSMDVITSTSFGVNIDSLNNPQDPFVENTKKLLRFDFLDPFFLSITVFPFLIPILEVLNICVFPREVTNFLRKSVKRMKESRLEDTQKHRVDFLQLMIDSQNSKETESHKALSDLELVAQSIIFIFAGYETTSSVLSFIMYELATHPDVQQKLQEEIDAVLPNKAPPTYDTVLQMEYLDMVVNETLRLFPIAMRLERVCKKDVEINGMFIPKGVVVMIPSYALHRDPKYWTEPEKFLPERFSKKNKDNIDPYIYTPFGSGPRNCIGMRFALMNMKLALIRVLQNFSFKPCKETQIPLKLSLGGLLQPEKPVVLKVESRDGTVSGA
DNA dC->dU-editing enzyme APOBEC-3G, sequence (Q9HC16 whole entry): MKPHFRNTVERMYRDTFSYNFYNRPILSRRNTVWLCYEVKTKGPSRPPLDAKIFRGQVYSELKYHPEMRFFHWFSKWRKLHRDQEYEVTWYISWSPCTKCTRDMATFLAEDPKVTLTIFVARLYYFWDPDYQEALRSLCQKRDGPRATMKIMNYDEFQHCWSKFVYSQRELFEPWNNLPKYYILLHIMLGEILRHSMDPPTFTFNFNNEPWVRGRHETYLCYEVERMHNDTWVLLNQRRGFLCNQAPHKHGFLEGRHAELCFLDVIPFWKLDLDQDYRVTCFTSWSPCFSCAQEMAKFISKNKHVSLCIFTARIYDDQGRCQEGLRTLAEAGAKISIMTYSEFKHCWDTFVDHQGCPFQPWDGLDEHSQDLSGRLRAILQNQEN

For `COc1cc(/N=c2\ssnc2Cl)cc(OC)c1OC`, the IC50 was > 100 µM (inactive) in [1]; 10.8 µM (active) in test [2]; 4.76 µM (active) in [3]; 43.6 µM (active) in test [5]; 7.2 µM (active) in test [7]; 69.4 µM (inactive) in test [8]. Moreover, the values for the IC50 in test [9], in test [10] and in test [12] were 20.4 µM (active), 80 µM (inactive) and 5.22 µM (active), respectively. In addition, the half-maximal activity concentration (AC50) in test [4] is 31.6 µM (inconclusive). The results for the EC50 in test [6] and in test [11] were 56.9 µM (inactive) and 55.3 µM (inactive), respectively.

Take `C#CCOCCOCCOCCNc1nc(N2CCN(C(=O)CCCCCCCCCCNC(=O)[C@@H](CCSC)n3cc(CCO)nn3)CC2)nc(N2CCN(C(=O)CCCCCCCCCCNC(=O)[C@H](CCCN=C(N)N)n3cc(C[C@@H](C)CC)nn3)CC2)n1`: the IC50 in test [13] is 3.03 µM (active); in test [14] it was 3.08 µM (active); in test [15], 5.55 µM (active).

In the case of `Cc1cccc(NC(=O)Cn2cc(C(=O)c3ccco3)c3ccccc32)c1`, the IC50 in [16] was > 50 µM (not active); in test [17] it was > 119 µM (inactive); in test [18], > 119 µM (inactive).
